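Tested at 5 concentrations; 48 h exposure; 96-well plates; endpoints linearly interpolated, else capped at highest concentration. TGI is the concentration that stops growth completely.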
Legend:
Test in all cases: NCI-60 cell line screen, 48 h
K-562 leukemia = test system: K-562 leukemia
NCI-H460 lung = test system: NCI-H460 lung
SK-MEL-5 melanoma = test system: SK-MEL-5 melanoma
NCI/ADR-RES ovarian = test system: NCI/ADR-RES ovarian
SR leukemia = test system: SR leukemia
M14 melanoma = test system: M14 melanoma
MCF7 breast = test system: MCF7 breast
UACC-62 melanoma = test system: UACC-62 melanoma
SK-MEL-28 melanoma = test system: SK-MEL-28 melanoma
OVCAR-3 ovarian = test system: OVCAR-3 ovarian
HCT-15 colon = test system: HCT-15 colon
OVCAR-4 ovarian = test system: OVCAR-4 ovarian
SNB-19 CNS = test system: SNB-19 CNS
IGROV1 ovarian = test system: IGROV1 ovarian
TK-10 renal = test system: TK-10 renal
EKVX NSCLC = test system: EKVX NSCLC
BT-549 breast = test system: BT-549 breast
HT29 colon = test system: HT29 colon
NCI-H23 lung = test system: NCI-H23 lung
A549 NSCLC = test system: A549 NSCLC
SW-620 colon = test system: SW-620 colon
DU-145 prostate = test system: DU-145 prostate
HOP-92 NSCLC = test system: HOP-92 NSCLC
MDA-N = test system: MDA-N
SNB-75 CNS = test system: SNB-75 CNS
RPMI-8226 leukemia = test system: RPMI-8226 leukemia
HL-60(TB) leukemia = test system: HL-60(TB) leukemia
SF-268 CNS = test system: SF-268 CNS
SK-MEL-2 melanoma = test system: SK-MEL-2 melanoma
NCI-H522 lung = test system: NCI-H522 lung
MALME-3M melanoma = test system: MALME-3M melanoma
HCT-116 colon = test system: HCT-116 colon
MDA-MB-231 breast = test system: MDA-MB-231 breast
HCC-2998 colon = test system: HCC-2998 colon
PC-3 prostate = test system: PC-3 prostate
SF-295 CNS = test system: SF-295 CNS
SF-539 CNS = test system: SF-539 CNS
COLO 205 colon = test system: COLO 205 colon
NCI-H226 lung = test system: NCI-H226 lung
CCRF-CEM leukemia = test system: CCRF-CEM leukemia
UACC-257 melanoma = test system: UACC-257 melanoma
HOP-62 NSCLC = test system: HOP-62 NSCLC
SN12C renal = test system: SN12C renal
SK-OV-3 ovarian = test system: SK-OV-3 ovarian
U251 CNS = test system: U251 CNS
ACHN renal = test system: ACHN renal
OVCAR-8 ovarian = test system: OVCAR-8 ovarian
MOLT-4 leukemia = test system: MOLT-4 leukemia
786-0 renal = test system: 786-0 renal
MDA-MB-435 = test system: MDA-MB-435
OVCAR-5 ovarian = test system: OVCAR-5 ovarian
T-47D breast = test system: T-47D breast
KM12 colon = test system: KM12 colon
CAKI-1 renal = test system: CAKI-1 renal
HS 578T breast = test system: HS 578T breast
RXF 393 renal = test system: RXF 393 renal
UO-31 renal = test system: UO-31 renal

Measured: TGI

Cc1c2ccccc2cc2nc3ccccc3n12
> 10 µM: K-562 leukemia | NCI-H460 lung | SK-MEL-5 melanoma | NCI/ADR-RES ovarian | SR leukemia | M14 melanoma | MCF7 breast | UACC-62 melanoma | SK-MEL-28 melanoma | OVCAR-3 ovarian | HCT-15 colon | OVCAR-4 ovarian | SNB-19 CNS | IGROV1 ovarian | TK-10 renal | EKVX NSCLC | BT-549 breast | HT29 colon | NCI-H23 lung | A549 NSCLC | SW-620 colon | DU-145 prostate | HOP-92 NSCLC | MDA-N | SNB-75 CNS | RPMI-8226 leukemia | HL-60(TB) leukemia | SF-268 CNS | SK-MEL-2 melanoma | NCI-H522 lung | MALME-3M melanoma | HCT-116 colon | MDA-MB-231 breast | HCC-2998 colon | PC-3 prostate | SF-295 CNS | SF-539 CNS | COLO 205 colon | NCI-H226 lung | CCRF-CEM leukemia | UACC-257 melanoma | HOP-62 NSCLC | SN12C renal | SK-OV-3 ovarian | U251 CNS | ACHN renal | OVCAR-8 ovarian | MOLT-4 leukemia | 786-0 renal | MDA-MB-435 | OVCAR-5 ovarian | T-47D breast | KM12 colon | CAKI-1 renal | HS 578T breast | RXF 393 renal

COC(=O)c1c(OC(C)=O)ccc2c1c1c(OC(C)=O)c3ccccc3c(OC(C)=O)c1n2C
61.7 µM: SF-539 CNS
52.1 µM: HCC-2998 colon
60 µM: CAKI-1 renal
39.1 µM: MOLT-4 leukemia
94.8 µM: 786-0 renal
65.1 µM: HOP-62 NSCLC
52.4 µM: SK-OV-3 ovarian
77.3 µM: SF-268 CNS
39.2 µM: EKVX NSCLC
67.8 µM: TK-10 renal
99.4 µM: M14 melanoma
34.5 µM: SR leukemia
50.5 µM: T-47D breast
47.4 µM: RPMI-8226 leukemia
36 µM: SK-MEL-2 melanoma
58.9 µM: HCT-116 colon
90.2 µM: U251 CNS
38.7 µM: HOP-92 NSCLC
42.1 µM: SK-MEL-5 melanoma
49.4 µM: UACC-62 melanoma
44.5 µM: OVCAR-3 ovarian
70.7 µM: SF-295 CNS
57.1 µM: BT-549 breast
81.2 µM: MALME-3M melanoma
60.5 µM: CCRF-CEM leukemia
> 100 µM: NCI-H460 lung | NCI/ADR-RES ovarian | MCF7 breast | SK-MEL-28 melanoma | HCT-15 colon | SNB-19 CNS | HT29 colon | NCI-H23 lung | A549 NSCLC | DU-145 prostate | UO-31 renal | MDA-N | MDA-MB-231 breast | PC-3 prostate | COLO 205 colon | NCI-H226 lung | SN12C renal | MDA-MB-435 | OVCAR-5 ovarian | RXF 393 renal
26.4 µM: SNB-75 CNS
48.1 µM: HL-60(TB) leukemia
51.1 µM: KM12 colon
93.5 µM: OVCAR-4 ovarian
28.3 µM: NCI-H522 lung
85 µM: ACHN renal
85.2 µM: OVCAR-8 ovarian
62.5 µM: HS 578T breast
35.5 µM: IGROV1 ovarian
43.2 µM: K-562 leukemia

O=C(O)c1cc2ccccc2c(N=Nc2ccc(S(=O)(=O)O)cc2)c1O
> 100 µM: K-562 leukemia | NCI-H460 lung | SK-MEL-5 melanoma | NCI/ADR-RES ovarian | SR leukemia | M14 melanoma | MCF7 breast | UACC-62 melanoma | SK-MEL-28 melanoma | OVCAR-3 ovarian | HCT-15 colon | OVCAR-4 ovarian | SNB-19 CNS | IGROV1 ovarian | TK-10 renal | EKVX NSCLC | BT-549 breast | HT29 colon | A549 NSCLC | SW-620 colon | DU-145 prostate | HOP-92 NSCLC | UO-31 renal | MDA-N | SNB-75 CNS | RPMI-8226 leukemia | HL-60(TB) leukemia | SF-268 CNS | SK-MEL-2 melanoma | NCI-H522 lung | MALME-3M melanoma | HCT-116 colon | MDA-MB-231 breast | HCC-2998 colon | PC-3 prostate | SF-295 CNS | SF-539 CNS | COLO 205 colon | NCI-H226 lung | CCRF-CEM leukemia | UACC-257 melanoma | HOP-62 NSCLC | SN12C renal | SK-OV-3 ovarian | U251 CNS | ACHN renal | OVCAR-8 ovarian | MOLT-4 leukemia | 786-0 renal | MDA-MB-435 | OVCAR-5 ovarian | T-47D breast | KM12 colon | CAKI-1 renal | HS 578T breast | RXF 393 renal

From PubChem BioAssay (NCI)
